# ChEMBL document CHEMBL3045181, “Flufenerim, a novel insecticide acting on diverse insect pests: biological mode of action and biochemical aspects” (2011)
# Active and inactive are the calls of the source. The calls are words filed in the database; no cut-off is given here.
# Experiments:
# Bemisia tabaci [1] = assay: Insecticidal activity against adult Bemisia tabaci biotype B (sweet potato whitefly) reared on compound pre-treated cotton seedlings assessed as insect mortality at 20 mg/L of active ingredient measured up to 4 days post dose; type: functional
# Bemisia tabaci [2] = assay: Insecticidal activity against adult Bemisia tabaci biotype B (sweet potato whitefly) exposed to 0.1 mg of active ingredient per liter of compound for 30 generations reared on compound pre-treated cotton seedlings assessed as insect mortality at 0.8 mg/L of active ingredient; type: functional
# Myzus persicae [3] = assay: Insecticidal activity against Myzus persicae Fluf-RG-15 (green peach aphid) first nymphal stages exposed to 0.1 mg of active ingredient per liter of compound for 15 generations grown on compound pre-treated mustard leaves assessed as insect mortality measured 72 hr post compound dose; type: functional
# Bemisia tabaci [4] = assay: Insecticidal activity against thiamethoxam-resistant adult Bemisia tabaci ActRQ-G95 reared on compound-pre-treated cotton seedlings assessed as insect mortality; type: functional
# Bemisia tabaci [5] = assay: Inhibition of oviposition of Bemisia tabaci biotype B (sweet potato whitefly) reared on cotton seedlings at 10 mg/L of active ingredient by oviposition nonchoice assay; type: functional, organism-based
# Bemisia tabaci [6] = assay: Inhibition of oviposition of Bemisia tabaci biotype B (sweet potato whitefly) reared on cotton seedlings at 10 mg/L of active ingredient by oviposition choice assay; type: functional, organism-based
# Spodoptera littoralis [7] = assay: Insecticidal activity against Spodoptera littorali first-instar stages grown on compound pre-treated cotton leaves assessed as insect mortality at 0.5 mg/L of active ingredient measured 72 hr post compound dose; type: functional
# Bemisia tabaci [8] = assay: Insecticidal activity against adult Bemisia tabaci biotype B (sweet potato whitefly) reared on compound-pretreated cotton seedlings assessed as insect mortality at 0.5 mg/L of active ingredient measured 48 hr post compound dose; type: functional
# Spodoptera littoralis [9] = assay: Insecticidal activity against Spodoptera littorali first-instar stages grown on compound pre-treated cotton leaves assessed as insect mortality measured 72 hr post compound dose; type: functional
# Spodoptera littoralis [10] = assay: Insecticidal activity against Spodoptera littorali first-instar stages grown on compound pre-treated cotton leaves assessed as insect mortality at 6.32 mg/L of active ingredient measured 72 hr post compound dose; type: functional
# Bemisia tabaci [11] = assay: In-vivo inhibition of Bemisia tabaci (sweet potato whitefly) AChE isolated from white fly feeding on compound-pre-treated cotton leaves for 48 hr assessed as reduction in acetylthiocholine iodide hydrolysis by Ellman method based colorimetry; type: functional, organism-based
# AChE2 (Bemisia tabaci) = AChE2 (Bemisia tabaci) (UniProt B3SST5); assay: Inhibition of AChE in Bemisia tabaci (sweet potato whitefly) homogenates assessed as reduction in acetylthiocholine iodide hydrolysis by Ellman method based colorimetry
# Spodoptera littoralis [12] = assay: Insecticidal activity against Spodoptera littorali first-instar stages grown on compound pre-treated cotton leaves assessed as insect mortality under out door conditions at 16 mg/L of active ingredient measured after 2 days post dose; type: functional
# Bemisia tabaci [13] = assay: Insecticidal activity against adult Bemisia tabaci biotype B (sweet potato whitefly) reared on compound pre-treated cotton seedlings assessed as insect mortality under out door conditions at 30 mg/L of active ingredient measured after 2 days post dose; type: functional
# Bemisia tabaci [14] = assay: Insecticidal activity against adult Bemisia tabaci biotype B (sweet potato whitefly) reared on compound pre-treated cotton seedlings assessed as insect mortality under out door conditions at 30 mg/L of active ingredient measured after 1 days post dose; type: functional
# Bemisia tabaci [15] = assay: Insecticidal activity against adult Bemisia tabaci biotype B (sweet potato whitefly) reared on compound pre-treated cotton seedlings assessed as insect mortality at 20 mg/L of active ingredient measured after 7 days post dose; type: functional, organism-based
# Spodoptera littoralis [16] = assay: Insecticidal activity against Spodoptera littorali first-instar stages grown on compound pre-treated cotton leaves assessed as insect mortality at 16 mg/L of active ingredient measured after 14 days post dose; type: functional
# Spodoptera littoralis [17] = assay: Insecticidal activity against Spodoptera littorali first-instar stages grown on compound pre-treated cotton leaves assessed as insect mortality at 16 mg/L of active ingredient measured after 7 days post dose; type: functional
# Spodoptera littoralis [18] = assay: Insecticidal activity against Spodoptera littorali first-instar stages grown on compound pre-treated cotton leaves assessed as insect mortality at 16 mg/L of active ingredient measured up to 4 days post dose; type: functional
# Myzus persicae [19] = assay: Insecticidal activity against Myzus persicae (green peach aphid) first nymphal stages grown on compound pre-treated mustard leaves assessed as insect mortality measured 72 hr post compound dose; type: functional
# Myzus persicae [20] = assay: Insecticidal activity against Myzus persicae (green peach aphid) first nymphal stages grown on compound pre-treated mustard leaves assessed as insect mortality at 1 mg/L of active ingredient measured 72 hr post compound dose; type: functional
# Bemisia tabaci [21] = assay: Insecticidal activity against adult Bemisia tabaci biotype B (sweet potato whitefly) reared on cotton seedlings assessed as induction of insect mortality; type: functional
# Bemisia tabaci [22] = assay: Insecticidal activity against adult Bemisia tabaci biotype B (sweet potato whitefly) reared on cotton seedlings assessed as insect mortality at 0.8 mg/L of active ingredient; type: functional
# Spodoptera frugiperda [23] = assay: Insecticidal activity against Spodoptera frugiperda (fall armyworm) fed with compound pre-treated sweet corn foliage 3 hr after compound application assessed as induction of mortality on day 1 and 2 post compound application; type: functional
# Spodoptera frugiperda [24] = assay: Insecticidal activity against Spodoptera frugiperda (fall armyworm) fed with compound pre-treated sweet corn foliage 3 hr after compound application assessed as induction of mortality on day 0 post compound application; type: functional
# AChE2 (Bemisia tabaci), sequence (B3SST5 as listed by the source): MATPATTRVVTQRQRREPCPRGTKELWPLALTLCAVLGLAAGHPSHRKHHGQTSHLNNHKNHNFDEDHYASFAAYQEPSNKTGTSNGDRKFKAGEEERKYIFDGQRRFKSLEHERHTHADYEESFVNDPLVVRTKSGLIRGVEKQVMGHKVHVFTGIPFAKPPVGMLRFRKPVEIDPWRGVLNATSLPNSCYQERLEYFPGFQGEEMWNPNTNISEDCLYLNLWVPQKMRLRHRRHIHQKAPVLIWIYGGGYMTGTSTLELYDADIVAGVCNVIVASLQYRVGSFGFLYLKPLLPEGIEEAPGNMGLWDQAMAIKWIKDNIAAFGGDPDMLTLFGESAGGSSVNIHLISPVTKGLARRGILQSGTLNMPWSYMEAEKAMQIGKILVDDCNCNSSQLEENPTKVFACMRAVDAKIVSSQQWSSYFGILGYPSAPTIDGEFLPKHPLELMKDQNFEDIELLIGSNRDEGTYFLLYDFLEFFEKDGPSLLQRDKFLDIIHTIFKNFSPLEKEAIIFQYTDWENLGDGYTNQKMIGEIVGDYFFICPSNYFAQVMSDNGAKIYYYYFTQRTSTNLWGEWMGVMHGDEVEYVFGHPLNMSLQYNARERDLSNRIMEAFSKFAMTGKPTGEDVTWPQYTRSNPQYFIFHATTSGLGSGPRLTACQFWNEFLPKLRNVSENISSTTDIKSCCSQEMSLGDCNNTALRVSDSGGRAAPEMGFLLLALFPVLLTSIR
structure (smiles),measurement,setting,value
CC(F)c1ncnc(NCCc2ccc(OC(F)(F)F)cc2)c1Cl (configuration not stated) [FLUFENERIM],mortality,Bemisia tabaci [1],80%
same,LC50,Bemisia tabaci [2],2.38 mgAi/L
same,LC90,Bemisia tabaci [2],6.32 mgAi/L
same,LC50,Myzus persicae [3],0.31 mgAi/L
same,LC90,Myzus persicae [3],1.22 mgAi/L
same,LC50,Bemisia tabaci [4],0.41 mgAi/L
same,LC90,Bemisia tabaci [4],2.4 mgAi/L
same,inhibition,Bemisia tabaci [5],Active
same,inhibition,Bemisia tabaci [6],Active
same,mortality,Spodoptera littoralis [7],90%
same,mortality,Bemisia tabaci [8],94%
same,LC50,Spodoptera littoralis [9],2.38 mgAi/L
same,mortality,Spodoptera littoralis [10],90%
same,inhibition,Bemisia tabaci [11],Active
same,inhibition,AChE2 (Bemisia tabaci),Active
same,mortality,Spodoptera littoralis [12],>80%
same,mortality,Bemisia tabaci [13],30%
same,mortality,Bemisia tabaci [14],90%
same,Activity,Bemisia tabaci [15],inactive
same,mortality,Spodoptera littoralis [16],28%
same,mortality,Spodoptera littoralis [17],55%
same,mortality,Spodoptera littoralis [18],80%
same,LC50,Myzus persicae [19],0.39 mgAi/L
same,LC90,Myzus persicae [19],1.12 mgAi/L
same,mortality,Myzus persicae [20],90%
same,LC50,Bemisia tabaci [21],0.35 mgAi/L
same,LC90,Bemisia tabaci [21],1.24 mgAi/L
same,mortality,Bemisia tabaci [22],97%
CNC(=O)ON=C(C)SC [METHOMYL],mortality,Spodoptera littoralis [7],6%
same,mortality,Bemisia tabaci [8],10%
same,mortality,Spodoptera frugiperda [23],5%
same,mortality,Spodoptera frugiperda [24],50%
